The source of these data is patent US8048892B2, “Azaquinolone based compounds exhibiting prolyl hydroxylase inhibitory activity, compositions, and uses thereof” (Amgen Inc., priority 2006, dated 2011).

A value given as a limit tells only on which side of the number the result lay.

The test deals with HIF PHD2 (Homo sapiens, UniProt Q9GZT9). As to the kind of experiment: PHD2 inhibition assay (TR-FRET, VCB-Eu detection of hydroxylated P564-HIF1α peptide). It counts as biochemical. The following applies: 2 nM PHD2, 100 nM P564-HIF1α peptide, 0.25 μM 2-oxoglutarate. How it is done: Inhibition of HIF PHD2 activity was quantified utilizing the TR-FRET technology. HIF PHD2 catalyzes a hydroxyl modification on the proline residue of the P564-HIF1α peptide substrate (Biotin-DLEMLAPYIPMDDDFQL (SEQ ID NO: 7)) resulting in recognition and binding of the europylated Von Hippel-Lindau protein (pVHL), elongin B and elongin C heterotrimeric (VCB-Eu) complex.
HIF PHD2, sequence (Q9GZT9 whole entry): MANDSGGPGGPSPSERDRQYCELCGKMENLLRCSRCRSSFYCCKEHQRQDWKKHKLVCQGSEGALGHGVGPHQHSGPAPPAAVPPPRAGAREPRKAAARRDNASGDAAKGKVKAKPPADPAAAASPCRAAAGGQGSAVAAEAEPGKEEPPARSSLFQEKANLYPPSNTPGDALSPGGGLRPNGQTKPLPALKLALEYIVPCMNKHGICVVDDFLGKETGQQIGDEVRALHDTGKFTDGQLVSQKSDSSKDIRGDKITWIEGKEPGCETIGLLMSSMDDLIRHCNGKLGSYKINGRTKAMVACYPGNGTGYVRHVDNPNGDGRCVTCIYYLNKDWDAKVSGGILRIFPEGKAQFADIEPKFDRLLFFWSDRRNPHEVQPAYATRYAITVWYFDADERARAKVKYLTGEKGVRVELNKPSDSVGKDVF
The PHD2 inhibition assay was executed by addition of freshly dissolved FeCl2 to 178.57 μM (100 μM final concentration) in PHD2 Reaction Buffer containing 30 mM MES, pH 6, 10 mM NaCl, 0.25% Brij-35, 0.01% BSA, and 1% DMSO. 28 μL of the iron solution and 2 μL of inhibitor compounds serially diluted in 100% DMSO (5% DMSO final) were added to black polypropylene 96-well microtiter plates. To that, 10 μL of 10 nM PHD2 (2 nM final) was added to all wells of the plate except for the 8 wells of column 12 (LO control), and allowed to incubate at room temperature on the shaker for one hour. Column 6 was the HI control containing PHD2 enzyme and 5% DMSO vehicle, but no inhibitor compound. To initiate the PHD2 enzymatic reaction, 10 μL of a solution containing 500 nM P564-HIF1α peptide (100 nM final), 10 mM ascorbic acid (2 mM final), and 1.25 μM 2-oxoglutarate (α-ketoglutarate; 0.25 μM final) in PHD2 Reaction Buffer was added to all wells of the plate and allowed to incubate on the shaker at room temperature for one hour.
The reaction was terminated by addition of 25 μL TR-FRET Buffer (50 mM TRIS-HCl, pH 9, 100 mM NaCl, 0.05% BSA, and 0.5% Tween-20) containing 150 mM succinate (product inhibitor; 50 mM final), 75 nM streptavidin-APC (25 nM final), and 7.5 nM VCB-Eu (2.5 nM final). The TR-FRET detection reagents were placed on a shaker for 1 hour to reach binding equilibrium before reading on the Discovery platform (PerkinElmer). Europium is excited at 315 nm and phosphoresces at 615 nm with a large Stoke's shift. APC, in turn, emits at 655 nm upon excitation at 615 nm. The TR-FRET signal is measured as the ratio of the APC 655 nm signal divided by the internal europium reference 615 nm emission signal.
The POC (percentage of control) was determined by comparing the signal from hydroxylated peptide substrate in the enzyme reaction containing inhibitor compound with that from PHD2 enzyme with DMSO vehicle alone (HI control), and no enzyme (LO control). POC was calculated using the formula: % control (POC)=(cpd−average LO)/(average HI−average LO)*100. Data (consisting of POC and inhibitor concentration in μM) was fitted to a 4-parameter equation (y=A+((B−A)/(1+((x/C)^D))), where A is the minimum y (POC) value, B is the maximum y (POC), C is the x (cpd concentration) at the point of inflection and D is the slope factor) using a Levenburg-Marquardt non-linear regression algorithm.
A general note: TR-FRET usually uses a lanthanide donor and a delayed reading to cut background.

By IC50 is commonly meant the concentration that gives 50% inhibition. Consider `Cn1c(=O)c(C(=O)NCC(=O)O)c(O)c2cc(C3CCCCO3)cnc21` (racemic) [Example 68, (R,S)-2-(4-Hydroxy-1-methyl-2-oxo-6-(tetrahydro-2 H-pyran-2-yl)-1,2-dihydro-1,8-naphthyridine-3-carboxamido)acetic acid], for which the IC50 is less than 50 nM.

Consider `Cn1c(=O)c(C(=O)NCC(=O)O)c(O)c2cc(C3CCCO3)c(C(F)(F)F)nc21` (racemic) [Example 99, (R,S) 2-(4-Hydroxy-1-methyl-2-oxo-6-(tetrahydrofuran-2-yl)-7-(trifluoromethyl)-1,2-dihydro-1,8-naphthyridine-3-carboxamido)acetic acid], for which the IC50 was less than 50 nM.

`Cn1c(=O)c(C(=O)NCC(=O)O)c(O)c2cc(C3CCOC3)c(C(F)(F)F)nc21` (racemic) [Example 100, (R,S) 2-(4-Hydroxy-1-methyl-2-oxo-6-(tetrahydrofuran-3-yl)-7-(trifluoromethyl)-1,2-dihydro-1,8-naphthyridine-3-carboxamido)acetic acid]: the IC50 is less than 50 nM.

`Cn1c(=O)c(C(=O)NCC(=O)O)c(O)c2cc(C3CCCCO3)cnc21` (single isomer, unassigned) [Example 69, (R)-2-(4-hydroxy-1-methyl-2-oxo-6-(tetrahydro-2 H-pyran-2-yl)-1,2-dihydro-1,8-naphthyridine-3-carboxamido)acetic acid or (S)-2-(4-hydroxy-1-methyl-2-oxo-6-(tetrahydro-2 H-pyran-2-yl)-1,2-dihydro-1,8-naphthyridine-3-carboxamido)acetic acid] yielded a half-inhibitory concentration (IC50) of 50 to 100 nM.

`Cn1c(=O)c(C(=O)NCC(=O)O)c(O)c2cc(C3CCCCO3)cnc21` (single isomer, unassigned) [Example 70, (R)-2-(4-Hydroxy-1-methyl-2-oxo-6-(tetrahydro-2 H-pyran-2-yl)-1,2-dihydro-1,8-naphthyridine-3-carboxamido)acetic acid or (S)-2-(4-Hydroxy-1-methyl-2-oxo-6-(tetrahydro-2 H-pyran-2-yl)-1,2-dihydro-1,8-naphthyridine-3-carboxamido)acetic acid] showed an IC50 of 50 to 100 nM.

`Cn1c(=O)c(C(=O)NCC(=O)O)c(O)c2cc(C3CCCO3)c(C(F)(F)F)nc21` (single isomer, unassigned) [Example 101, (R)-2-(4-Hydroxy-1-methyl-2-oxo-6-(tetrahydrofuran-2-yl)-7-(trifluoromethyl)-1,2-dihydro-1,8-naphthyridine-3-carboxamido)acetic acid or (S)-2-(4-Hydroxy-1-methyl-2-oxo-6-(tetrahydrofuran-2-yl)-7-(trifluoromethyl)-1,2-dihydro-1,8-naphthyridine-3-carboxamido)acetic acid] registered an IC50 of less than 50 nM.

For the compound `Cn1c(=O)c(C(=O)NCC(=O)O)c(O)c2cc(C3CCCO3)c(C(F)(F)F)nc21` (single isomer, unassigned) [Example 102, (R)-2-(4-Hydroxy-1-methyl-2-oxo-6-(tetrahydrofuran-2-yl)-7-(trifluoromethyl)-1,2-dihydro-1,8-naphthyridine-3-carboxamido)acetic acid or (S)-2-(4-Hydroxy-1-methyl-2-oxo-6-(tetrahydrofuran-2-yl)-7-(trifluoromethyl)-1,2-dihydro-1,8-naphthyridine-3-carboxamido)acetic acid], the IC50 fell in the range of 50 to 100 nM.

On to `Cn1c(=O)c(C(=O)NCC(=O)O)c(O)c2cc(C3CCOC3)c(C(F)(F)F)nc21` (single isomer, unassigned) [Example 103, (R)-2-(4-Hydroxy-1-methyl-2-oxo-6-(tetrahydrofuran-3-yl)-7-(trifluoromethyl)-1,2-dihydro-1,8-naphthyridine-3-carboxamido)acetic acid or (S)-2-(4-Hydroxy-1-methyl-2-oxo-6-(tetrahydrofuran-3-yl)-7-(trifluoromethyl)-1,2-dihydro-1,8-naphthyridine-3-carboxamido)acetic acid], for which the IC50 is less than 50 nM.

`Cn1c(=O)c(C(=O)NCC(=O)O)c(O)c2cc(C3CCOC3)c(C(F)(F)F)nc21` (single isomer, unassigned) [Example 104, (R)-2-(4-Hydroxy-1-methyl-2-oxo-6-(tetrahydrofuran-3-yl)-7-(trifluoromethyl)-1,2-dihydro-1,8-naphthyridine-3-carboxamido)acetic acid or (S)-2-(4-Hydroxy-1-methyl-2-oxo-6-(tetrahydrofuran-3-yl)-7-(trifluoromethyl)-1,2-dihydro-1,8-naphthyridine-3-carboxamido)acetic acid]: the half-inhibitory concentration (IC50) is 50 to 100 nM.

The compound `Cn1c(=O)c(C(=O)NCC(=O)O)c(O)c2ncc(Br)cc21` [Example 1, N-((7-Bromo-4-hydroxy-1-methyl-2-oxo-1,2-dihydro-1,5-naphthyridin-3-yl)carbonyl)glycine] registered an IC50 of less than 50 nM.

The compound `Cn1c(=O)c(C(=O)NCC(=O)O)c(O)c2ncc(-c3cccs3)cc21` [Example 2, 2-(4-Hydroxy-1-methyl-2-oxo-7-(thiophen-2-yl)-1,2-dihydro-1,5-naphthyridine-3-carboxamido)acetic acid] showed an IC50 of less than 50 nM.

`Cn1c(=O)c(C(=O)NCC(=O)O)c(O)c2ncc(-c3ccccc3)cc21` [Example 3, 2-(4-Hydroxy-1-methyl-2-oxo-7-phenyl-1,2-dihydro-1,5-naphthyridine-3-carboxamido)acetic acid]: the IC50 lay within 50 to 100 nM.

As to `Cn1c(=O)c(C(=O)NCC(=O)O)c(O)c2ncc(C3=CCCC3)cc21` [Example 4, 2-(7-Cyclopentenyl-4-hydroxy-1-methyl-2-oxo-1,2-dihydro-1,5-naphthyridine-3-carboxamido)acetic acid], the IC50 was less than 50 nM.

In turn, `Cn1c(=O)c(C(=O)NCC(=O)O)c(O)c2ncc(C3CCCC3)cc21` [Example 5, 2-(7-Cyclopentyl-4-hydroxy-1-methyl-2-oxo-1,2-dihydro-1,5-naphthyridine-3-carboxamido)acetic acid] returned an IC50 of less than 50 nM.

As for `Cn1c(=O)c(C(=O)NCC(=O)O)c(O)c2ncc(C#N)cc21` [Example 6, 2-(7-Cyano-4-hydroxy-1-methyl-2-oxo-1,2-dihydro-1,5-naphthyridine-3-carboxamido)acetic acid], the IC50 is less than 50 nM.

Turning to `C#Cc1cnc2c(O)c(C(=O)NCC(=O)O)c(=O)n(C)c2c1` [Example 7, 2-(7-Ethynyl-4-hydroxy-1-methyl-2-oxo-1,2-dihydro-1,5-naphthyridine-3-carboxamido)acetic acid], the IC50 was less than 50 nM.

`CC#Cc1cnc2c(O)c(C(=O)NCC(=O)O)c(=O)n(C)c2c1` [Example 8, 2-(4-Hydroxy-1-methyl-2-oxo-7-(prop-1-ynyl)-1,2-dihydro-1,5-naphthyridine-3-carboxamido)acetic acid] had an IC50 of 50 to 100 nM.

`CC(C)C#Cc1cnc2c(O)c(C(=O)NCC(=O)O)c(=O)n(C)c2c1` [Example 9, 2-(4-Hydroxy-1-methyl-7-(3-methylbut-1-ynyl)-2-oxo-1,2-dihydro-1,5-naphthyridine-3-carboxamido)acetic acid] came in with an IC50 of less than 50 nM.

Consider `COCC#Cc1cnc2c(O)c(C(=O)NCC(=O)O)c(=O)n(C)c2c1` [Example 10, 2-(4-Hydroxy-7-(3-methoxyprop-1-ynyl)-1-methyl-2-oxo-1,2-dihydro-1,5-naphthyridine-3-carboxamido)acetic acid], for which the IC50 is less than 50 nM.

`Cn1c(=O)c(C(=O)NCC(=O)O)c(O)c2ccc(Br)nc21` [Example 11, 2-(7-Bromo-4-hydroxy-1-methyl-2-oxo-1,2-dihydro-1,8-naphthyridine-3-carboxamido)acetic acid] yielded an IC50 of less than 50 nM.

`Cn1c(=O)c(C(=O)NCC(=O)O)c(O)c2ccc(-c3ccccc3)nc21` [Example 12, 2-(4-Hydroxy-1-methyl-2-oxo-7-phenyl-1,2-dihydro-1,8-naphthyridine-3-carboxamido)acetic acid] had an IC50 of less than 50 nM.

In the case of `Cn1c(=O)c(C(=O)NCC(=O)O)c(O)c2ccc(C3=CCCCC3)nc21` [Example 13, 2-(7-Cyclohexenyl-4-hydroxy-1-methyl-2-oxo-1,2-dihydro-1,8-naphthyridine-3-carboxamido)acetic acid], the IC50 was less than 50 nM.
